Literature values as cited in patent US20230173296A1, “INTRACAVITARY PHOTODYNAMIC THERAPY” (Simphotek, Inc., priority 2020, published 2023).
Read-outs that look alike come from different tables or passages of the source.

Tests used:
tumors in mice = settings: Qiu et. al., 2016
cancer in mice = settings: I-PDT, Shafirstein et. al., 2018
cancer in rabbits = settings: I-PDT, Shafirstein et. al., 2018
Human prostate = settings: Davidson et. al., 2009

Photofrin
Threshold [^1O2]dose (tumors in mice): >1.0 (Qiu et. al., 2016) mM
Threshold Light Dose Rate ϕT (cancer in mice): 8.4 (Shafirstein et. al., 2018) mW/cm^2
Threshold Light Dose Rate ϕT (cancer in rabbits): 16.5 (Shafirstein et. al., 2018) mW/cm^2
ε, PS extinction coefficient (630 nm): Photofrin (630 nm): 0.0035 cm^−1 μM^−1

benzoporphyrin derivative monoacid ring A [BPD]
ε, PS extinction coefficient (690 nm): BPD (690 nm): 0.0783 cm^−1 μM^−1

CC[C@H]1c2cc3[n-]c4c(c3C)C(=O)[C@H](C(=O)OC)c4c3nc(cc4[n-]c(cc(n2)[C@@H]1C)c(C(C)=O)c4C)[C@@H](C)[C@@H]3CCC(=O)O.[Pd+2] [TOOKAD]
Threshold Light Dose (Human prostate): >23 (Davidson et. al., 2009) J/cm^2

Oc1cccc(-c2c3nc(c(-c4cccc(O)c4)c4ccc([nH]4)c(-c4cccc(O)c4)c4nc(c(-c5cccc(O)c5)c5ccc2[nH]5)CC4)C=C3)c1 [mTHPC]
ε, PS extinction coefficient (650 nm): mTHPC (650 nm): 0.048 cm^−1 μM^−1
